Data taken from patent US20250388582A1, “NOVEL BICYCLIC HETEROARYL COMPOUND AND USE THEREOF” (ILDONG PHARMACEUTICAL CO., LTD., priority 2022, published 2025).
pIC50: −log10 of the molar value.

How the values were obtained:
human GST-PIKFYVE = target: T1, human GST-PIKFYVE (Homo sapiens, UniProt Q9Y2I7); test: ADP-Glo kinase assay, enzyme inhibition activity against human PIKFYVE (Carna biosciences); assay type: biochemical; settings: inhibitory activity at final compound concentration 10 nM; 1 hour at room temperature
T1 construct: GST; purchased Carna biosciences 11-118
T1 sequence (Q9Y2I7 whole entry): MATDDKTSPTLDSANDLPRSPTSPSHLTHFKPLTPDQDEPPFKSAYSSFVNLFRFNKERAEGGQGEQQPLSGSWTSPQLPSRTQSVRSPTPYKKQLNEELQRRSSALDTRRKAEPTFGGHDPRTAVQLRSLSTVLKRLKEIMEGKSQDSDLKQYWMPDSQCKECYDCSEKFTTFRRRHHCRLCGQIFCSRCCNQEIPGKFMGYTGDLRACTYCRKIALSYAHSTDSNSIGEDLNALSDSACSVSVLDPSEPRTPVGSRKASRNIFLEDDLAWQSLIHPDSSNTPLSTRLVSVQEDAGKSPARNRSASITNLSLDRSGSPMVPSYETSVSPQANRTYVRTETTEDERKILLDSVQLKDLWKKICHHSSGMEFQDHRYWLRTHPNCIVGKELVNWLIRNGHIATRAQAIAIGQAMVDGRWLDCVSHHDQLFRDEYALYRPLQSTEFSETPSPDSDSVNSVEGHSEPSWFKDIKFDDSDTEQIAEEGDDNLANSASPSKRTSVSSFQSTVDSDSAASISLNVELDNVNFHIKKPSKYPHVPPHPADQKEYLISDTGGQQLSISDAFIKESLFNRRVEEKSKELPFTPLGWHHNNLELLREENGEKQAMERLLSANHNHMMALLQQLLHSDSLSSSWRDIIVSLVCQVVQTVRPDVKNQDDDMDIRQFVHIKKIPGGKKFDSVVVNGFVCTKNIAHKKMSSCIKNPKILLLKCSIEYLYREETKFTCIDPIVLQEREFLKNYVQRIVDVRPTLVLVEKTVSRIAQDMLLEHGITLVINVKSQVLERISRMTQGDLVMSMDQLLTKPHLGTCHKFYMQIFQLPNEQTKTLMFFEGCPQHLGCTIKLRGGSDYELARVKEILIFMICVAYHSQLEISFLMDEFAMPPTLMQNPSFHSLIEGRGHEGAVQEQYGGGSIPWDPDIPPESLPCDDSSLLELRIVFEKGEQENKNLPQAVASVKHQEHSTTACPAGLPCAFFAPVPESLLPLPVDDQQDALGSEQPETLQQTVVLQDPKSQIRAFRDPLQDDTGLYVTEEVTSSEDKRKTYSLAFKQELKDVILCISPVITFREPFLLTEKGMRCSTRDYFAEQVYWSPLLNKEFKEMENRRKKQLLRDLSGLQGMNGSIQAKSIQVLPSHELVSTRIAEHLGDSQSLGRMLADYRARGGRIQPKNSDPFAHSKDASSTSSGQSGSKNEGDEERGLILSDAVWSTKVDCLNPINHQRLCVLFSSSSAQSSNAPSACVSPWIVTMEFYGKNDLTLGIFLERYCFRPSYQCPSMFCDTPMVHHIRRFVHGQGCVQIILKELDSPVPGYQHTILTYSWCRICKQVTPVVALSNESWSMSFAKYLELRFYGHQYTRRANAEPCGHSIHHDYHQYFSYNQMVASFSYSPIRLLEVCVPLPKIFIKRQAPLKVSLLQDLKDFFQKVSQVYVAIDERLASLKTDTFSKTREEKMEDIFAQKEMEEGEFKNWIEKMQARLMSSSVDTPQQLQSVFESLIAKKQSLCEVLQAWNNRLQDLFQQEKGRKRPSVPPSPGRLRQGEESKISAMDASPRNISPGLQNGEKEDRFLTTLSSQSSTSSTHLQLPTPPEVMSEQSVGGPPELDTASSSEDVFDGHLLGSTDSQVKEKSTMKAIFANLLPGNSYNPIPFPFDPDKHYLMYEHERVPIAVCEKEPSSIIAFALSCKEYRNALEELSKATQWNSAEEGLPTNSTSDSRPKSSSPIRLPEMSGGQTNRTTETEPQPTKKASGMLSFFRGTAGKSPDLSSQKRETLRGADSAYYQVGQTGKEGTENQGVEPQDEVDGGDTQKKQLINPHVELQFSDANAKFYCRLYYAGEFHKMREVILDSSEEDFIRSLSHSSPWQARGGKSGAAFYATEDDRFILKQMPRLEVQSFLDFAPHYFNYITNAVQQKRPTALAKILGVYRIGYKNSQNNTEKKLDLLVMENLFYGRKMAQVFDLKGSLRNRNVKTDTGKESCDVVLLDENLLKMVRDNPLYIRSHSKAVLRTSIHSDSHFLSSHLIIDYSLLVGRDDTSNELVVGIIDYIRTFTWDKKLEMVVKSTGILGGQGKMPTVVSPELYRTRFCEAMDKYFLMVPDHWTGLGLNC
How it was run: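 Human GST-PIKFYVE (glutathione Sepharose-purified) was reacted with substrate and ATP for 1 h at room temperature in 50 mM MOPS, 1 mM DTT, pH 7.2, with compound at 10 nM final. ADP formed was read by ADP-Glo luminescence; inhibition was calculated against no-enzyme (100%) and no-compound (0%) controls.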

PIKFYVE = target: T2, PIKFYVE (Homo sapiens, UniProt Q9Y2I7); test: NanoBRET TE Intracellular Kinase Assay, interaction of PIKFYVE and compounds in HEK293 cells; assay type: cell-based; settings: IC50 class from BRET; HEK293 cells expressing PIKFYVE-NanoLuc; 2 hours incubation
T2 construct: host or cells: HEK293 (ATCC, CRL-1573)
T2 sequence (Q9Y2I7 whole entry): as above
Method: To predict the efficacy of the compounds according to Example on PIKFYVE in humans, the interaction between PIKFYVE and the compounds was tested using the HEK293 cell line derived from human embryonic kidney (ATCC, CRL-1573) via NanoBRETT TE Intracellular Kinase Assay Service of Carna biosciences Inc., (Japan). The evaluation method provided by Carna biosciences Inc., was shown below and the NanoBRET™ TE Intracellular Kinase Assay, K-8 Kit (Promega, CS1810C88) was used.
The HEK-293 cells cultured in Opti-MEM™ I Reduced Serum Medium (Thermo Fisher, 11058-021) were transfected with Transfection Carrier DNA (Promega, E4881), PIKFYVE-NanoLuc Fusion Vector (Promega, CS1810C225), and FuGENE HD Transfection Reagent (Promega, E2311) to produce cells expressing genes combining PIKFYVE and NanoLuc, followed by culturing 100 μl (2×10^5 cells/ml) each in 96-well plates (Corning, 3917).
10× compounds according to Examples or Comparative Examples prepared by concentration in 1× NanoBRET™ tracer reagent and DMSO were reacted in 96-well plates and incubated for 2 hours in a 37° C., 5% CO2 incubator.
After the reaction was completed, 3× Complete NanoBRET™ Nano-Glo Substrate solution was added to each well, and the reaction was allowed to run for 2-3 minutes at room temperature before BRET was measured using a GloMax Discover Multimode Microplate Reader (Promega).

[1] = Microsomal metabolic stability assay; assay type: in vitro ADME, human or CD1 male mouse; settings: Clint class; 1 μM compound, 0.5 mg/ml microsomes, NADPH, UDPGA, Alamethicin; species not given
Method: The microsomal metabolic stability assay was performed using pooled human or CD1 male mouse interspecies microsomes. Supplemental cofactors (NADPH, UDPGA) and microsomal membrane pore-forming factor (Alamethicin) were added to promote cytochrome P450 (CYP), UGT reactivity to the target compound. Test compounds (1 μM incubation concentration) and microsomes (0.5 mg/ml incubation concentration) were diluted in 0.1 M phosphate buffer, pH 7.4, and incubated (37° C.). The reaction was initiated by the addition of NADPH (1 mM), UDPGA (1 mM) and Alamethicin (25 μg/mg). The incubation times were 0, 5, 15, 30, and 45 minutes, and at each time point, the reaction was terminated by adding acetonitrile containing internal standard (IS)(1:3 ratio). The plate was then sealed, centrifuged (3000 rpm, 20 min, 4° C.), and the supernatant was analyzed by LC-MS/MS. Hepatic extraction ratio values were calculated from the measured in vitro clearance and Intrinsic clearance (Clint) values were calculated from the assay results, and the respective Clint values were categorized into Low, Medium, and High categories based on the reference document (ref. Prostaglandins & other lipid mediators 136 (2018): 90-95).

Row | ADP-Glo kinase assay (%, 10 nM) (human GST-PIKFYVE) [%] | pIC50 (PIKFYVE) | Microsomal metabolic stability [1] | SMILES
1 | 65.10 | ≥ 8.00 | Low (Low <8.8,) | Cc1cccc(/C=N/Nc2nc(N3CCOCC3)nc3c2ncn3-c2cccc(OC(F)(F)F)c2)c1 [Example 128, (E)-4-(6-(2-(3-methylbenzylidene)hydrazinyl)-9-(3-(trifluoromethoxy)phenyl)-9H-purin-2-yl)morpholine]
2 | 80.47 | ≥ 8.00 | low | Cc1cccc(/C=N/Nc2nc(N3CCOCC3)nc3c2ncn3-c2cccc(N(C)C)c2)c1 [Example 202, (E)-N,N-dimethyl-3-(6-(2-(3-methylbenzylidene)hydrazinyl)-2-morpholino-9H-purin-9-yl)aniline]
3 | 88.76 | ≥ 8.00 | medium | COc1ccc(-n2cnc3c(N/N=C/c4cccc(C)c4)nc(N4CCOCC4)nc32)cc1 [Example 120, (E)-4-(9-(4-methoxyphenyl)-6-(2-(3-methylbenzylidene)hydrazinyl)-9H-purin-2-yl)morpholine]
4 | 89.94 | ≥ 8.00 | Low (Low <8.8,) | Cc1cccc(/C=N/Nc2nc(N3CCOCC3)nc3c2ncn3-c2cccc(F)c2)c1 [Example 129, (E)-4-(9-(3-fluorophenyl)-6-(2-(3-methylbenzylidene)hydrazinyl)-9H-purin-2-yl)morpholine]
5 | 84.48 | ≥ 8.00 |  | Cc1cccc(/C=N/Nc2nc(N3CCOCC3)nc3c2ncn3-c2ccc(N(C)C)cc2)c1 [Example 123, (E)-N,N-dimethyl-4-(6-(2-(3-methylbenzylidene)hydrazinyl)-2-morpholino-9H-purin-9-yl)aniline]
6 | 83.22 | ≥ 8.00 |  | Cc1cccc(/C=N/Nc2nc(N3CCOCC3)nc3c2ncn3-c2ccc(Cl)cc2)c1 [Example 100, (E)-4-(9-(4-chlorophenyl)-6-(2-(3-methylbenzylidene)hydrazinyl)-9H-purin-2-yl)morpholine]

The next lines start with the compound.

Row | SMILES | ADP-Glo kinase assay (%, 10 nM) (human GST-PIKFYVE) [%] | pIC50 (PIKFYVE) | Microsomal metabolic stability [1]
7 | Cc1cccc(/C=N/Nc2nc(N3CCOCC3)nc3c2nc(C)n3CC(=O)c2ccccn2)c1 [Example 157, (E)-2-(8-methyl-6-(2-(3-methylbenzylidene)hydrazinyl)-2-morpholino-9H-purin-9-yl)-1-(pyridin-2-yl)ethan-1-one] | 71.16 | 7.70 to 8.00 | Medium (Medium 8.8~48,)
8 | COc1ccc(C(=O)Cn2cnc3c(N/N=C/c4cccc(C)c4)nc(N4CCOCC4)nc32)cc1 [Example 39, (E)-1-(4-methoxyphenyl)-2-(6-(2-(3-methylbenzylidene)hydrazinyl)-2-morpholino-9H-purin-9-yl)ethan-1-one] | 74.99 | 7.70 to 8.00 | Medium (Medium 8.8~48,)
9 | Cc1cccc(/C=N/Nc2nc(N3CCOCC3)nc3c2ncn3CC(=O)c2ccc[nH]2)c1 [Example 34, (E)-2-(6-(2-(3-methylbenzylidene)hydrazinyl)-2-morpholino-9H-purin-9-yl)-1-(1H-pyrrol-2-yl)ethan-1-one] | 74.72 |  | Medium (Medium 8.8~48,)
10 | Cc1cccc(/C=N/Nc2nc(N3CCOCC3)nc3c2ncn3CC(=O)c2ccccc2C(F)(F)F)c1 [Example 43, (E)-2-(6-(2-(3-methylbenzylidene)hydrazinyl)-2-morpholino-9H-purin-9-yl)-1-(2-(trifluoromethyl)phenyl)ethan-1-one] | 80.86 | ≥ 8.00 | Medium (Medium 8.8~48,)
11 | Cc1cccc(/C=N/Nc2nc(N3CCOCC3)nc3c2ncn3C2CN(S(C)(=O)=O)C2)c1 [Example 85, (E)-4-(6-(2-(3-methylbenzylidene)hydrazinyl)-9-(1-(methylsulfonyl)azetidin-3-yl)-9H-purin-2-yl)morpholine] | 70.06 |  | Medium (Medium 8.8~48,)
12 | Cc1cccc(/C=N/Nc2nc(N3CCOCC3)nc3c2ncn3-c2ccc(O)nc2)c1 [Example 114, (E)-5-(6-(2-(3-methylbenzylidene)hydrazinyl)-2-morpholino-9H-purin-9-yl)pyridin-2-ol] | 80.06 | 7.52 to 7.70 | 
13 | Cc1cccc(/C=N/Nc2nc(N3CCOCC3)nc3c2ncn3CC(=O)c2ccc(Cl)cc2)c1 [Example 25, (E)-1-(4-chlorophenyl)-2-(6-(2-(3-methylbenzylidene)hydrazinyl)-2-morpholino-9H-purin-9-yl)ethan-1-one] | 72.46 | 7.70 to 8.00 | 
14 | Cc1cccc(/C=N/Nc2nc(N3CCOCC3)nc3c2ncn3CC(=O)c2ccncc2)c1 [Example 32, (E)-2-(6-(2-(3-methylbenzylidene)hydrazinyl)-2-morpholino-9H-purin-9-yl)-1-(pyridin-4-yl)ethan-1-one] | 59.60 | 7.52 to 7.70 | 
15 | COc1ccccc1-n1cnc2c(N/N=C/c3cccc(C)c3)nc(N3CCOCC3)nc21 [Example 124, (E)-4-(9-(2-methoxyphenyl)-6-(2-(3-methylbenzylidene)hydrazinyl)-9H-purin-2-yl)morpholine] | 87.81 | ≥ 8.00 | 
16 | Cc1cccc(/C=N/Nc2nc(N3CCOCC3)nc3c2ncn3CC(=O)c2cccc(Cl)c2)c1 [Example 49, (E)-1-(3-chlorophenyl)-2-(6-(2-(3-methylbenzylidene)hydrazinyl)-2-morpholino-9H-purin-9-yl)ethan-1-one] | 78.87 | ≥ 8.00 | 
17 | Cc1cccc(/C=N/Nc2nc(N3CCOCC3)nc3c2ncn3CC(=O)c2cccc(C)c2)c1 [Example 41, (E)-2-(6-(2-(3-methylbenzylidene)hydrazinyl)-2-morpholino-9H-purin-9-yl)-1-(m-tolyl)ethan-1-one] | 76.69 | ≥ 8.00 | 
18 | Cc1cccc(/C=N/Nc2nc(N3CCOCC3)nc3c2ncn3CC(=O)c2cccc(C(F)(F)F)c2)c1 [Example 44, (E)-2-(6-(2-(3-methylbenzylidene)hydrazinyl)-2-morpholino-9H-purin-9-yl)-1-(3-(trifluoromethyl)phenyl)ethan-1-one] | 62.80 | 7.52 to 7.70 | 
19 | Cc1cccc(/C=N/Nc2nc(N3CCOCC3)nc3c2ncn3-c2ccccn2)c1 [Example 99, (E)-4-(6-(2-(3-methylbenzylidene)hydrazinyl)-9-(pyridin-2-yl)-9H-purin-2-yl)morpholine] | 87.24 | ≥ 8.00 | 
20 | Cc1cccc(/C=N/Nc2nc(N3CCOCC3)nc3c2ncn3C2CCN(C(=O)c3ccccc3)CC2)c1 [Example 89, (E)-(4-(6-(2-(3-methylbenzylidene)hydrazinyl)-2-morpholino-9H-purin-9-yl)piperidin-1-yl)(phenyl)methanone] | 76.44 | 7.70 to 8.00 | 
21 | Cc1cccc(/C=N/Nc2nc(N3CCOCC3)nc3c2ncn3CCc2ccccn2)c1 [Example 73, (E)-4-(6-(2-(3-methylbenzylidene)hydrazinyl)-9-(2-(pyridin-2-yl)ethyl)-9H-purin-2-yl)morpholine] | 80.98 | 7.70 to 8.00 | 
